# Measurements published in patent US8952024B2, “Herbicidal pyrimidone derivatives” (E I du Pont de Nemours and Company, priority 2009, dated 2015).
# Columns and labels:
# Format in all cases: in vivo
# [1] = system: velvetleaf (Abutilon theophrasti); assay: Test B pre-/postemergence plant response
# How it was run: (§1)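 Greenhouse herbicide screen. Pre- and postemergence (1- to 4-leaf) spray of compound in solvent/surfactant mixture; loam–sand soil for pre, peat/vermiculite medium for post. Visual control rating 0–100 at 13 to 15 days after treatment.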
# [2] = system: wheat (Triticum aestivum); assay: Test B pre-/postemergence plant response
# How it was run: as §1
# [3] = system: johnsongrass (Sorghum halepense); assay: Test B pre-/postemergence plant response
# How it was run: as §1
# [4] = system: morningglory (Ipomoea coccinea); assay: Test B pre-/postemergence plant response
# How it was run: as §1
# [5] = system: Italian ryegrass (Lolium multiflorum); assay: Test B pre-/postemergence plant response
# How it was run: as §1
# [6] = system: giant foxtail (Setaria faberii); assay: Test B pre-/postemergence plant response
# How it was run: as §1
# [7] = system: downy bromegrass (Bromus tectorum); assay: Test B pre-/postemergence plant response
# How it was run: as §1
# [8] = system: bermudagrass (Cynodon dactylon); assay: Test B pre-/postemergence plant response
# How it was run: as §1
# corn (Zea mays) = assay: Test B pre-/postemergence plant response
# How it was run: as §1
# [9] = system: green foxtail (Setaria viridis); assay: Test B pre-/postemergence plant response
# How it was run: as §1
# [10] = system: goosegrass (Eleusine indica); assay: Test B pre-/postemergence plant response
# How it was run: as §1
# [11] = system: blackgrass (Alopecurus myosuroides); assay: Test B pre-/postemergence plant response
# How it was run: as §1
# [12] = system: pigweed (Amaranthus retroflexus); assay: Test B pre-/postemergence plant response
# How it was run: as §1
# [13] = system: ragweed (common ragweed, Ambrosia elatior); assay: Test B pre-/postemergence plant response
# How it was run: as §1
# soybean (Glycine max) = assay: Test B pre-/postemergence plant response
# How it was run: as §1
# [14] = system: chickweed (Stellaria media); assay: Test B postemergence plant response
# How it was run: (§2)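 Plants at the 1- to 4-leaf stage (2 to 18 cm tall), grown in pots of peat moss/vermiculite medium with wetting agent and starter nutrients, received postemergence applications of test chemicals. After 13 to 15 days in a greenhouse, injury was rated visually against untreated controls on a 0 (no effect) to 100 (complete control) scale.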
# [15] = system: winter barley (Hordeum vulgare); assay: Test B postemergence plant response
# How it was run: as §2
# [16] = system: canarygrass (Phalaris minor); assay: Test B postemergence plant response
# How it was run: as §2
# [17] = 31 g ai/ha, postemergence, scale 0 to 100, 0 is no effect, 100 is complete control
# [18] = 62 g ai/ha, postemergence, 0 is no effect, 100 is complete control, 13 to 15 days
# [19] = Postemergence, 125 g ai/ha, visual rating after 13 to 15 days, scale 0 (no effect) to 100 (complete control)
# [20] = Postemergence, 250 g ai/ha, scale 0 to 100 (0 no effect, 100 complete control)
# [21] = Preemergence, 31 g ai/ha, scale 0 to 100 (0 no effect, 100 complete control)
# [22] = Preemergence, 62 g ai/ha, scale 0 to 100, 0 no effect, 100 complete control
# [23] = Preemergence, 125 g ai/ha, scale 0 to 100, 0 no effect, 100 complete control
# [24] = Preemergence, 250 g ai/ha, 0 to 100 scale
smiles,measurement,setting,value
CCCCn1c(CCC)ncc(C(=O)C2=C(O)CCCC2=O)c1=O [Compound 75],"Plant response rating, Velvetleaf",[1]; [17],100
same,Velvetleaf plant response rating (0 to 100 scale),[1]; [18],100
same,"Plant response rating, Velvetleaf",[1]; [19],100
same,"Plant response rating, Velvetleaf",[1]; [20],100
same,"Plant response rating, Velvetleaf",[1]; [21],100
same,"Plant response rating, Velvetleaf",[1]; [22],100
same,"Plant response rating, Velvetleaf",[1]; [23],100
same,Velvetleaf plant response rating,[1]; [24],100
same,"Plant response rating, Wheat",[2]; [17],0
same,Wheat plant response rating (0 to 100 scale),[2]; [18],0
same,"Plant response rating, Wheat",[2]; [19],10
same,"Plant response rating, Wheat",[2]; [20],25
same,"Plant response rating, Wheat",[2]; [21],0
same,"Plant response rating, Wheat",[2]; [22],0
same,"Plant response rating, Wheat",[2]; [23],0
same,Wheat plant response rating,[2]; [24],0
same,"Plant response rating, Johnsongrass",[3]; [17],0
same,Johnsongrass plant response rating (0 to 100 scale),[3]; [18],10
same,"Plant response rating, Johnsongrass",[3]; [19],20
same,"Plant response rating, Johnsongrass",[3]; [20],75
same,"Plant response rating, Johnsongrass",[3]; [21],0
same,"Plant response rating, Johnsongrass",[3]; [22],10
same,"Plant response rating, Johnsongrass",[3]; [23],65
same,Johnsongrass plant response rating,[3]; [24],70
same,"Plant response rating, Morningglory",[4]; [17],20
same,Morningglory plant response rating (0 to 100 scale),[4]; [18],90
same,"Plant response rating, Morningglory",[4]; [19],95
same,"Plant response rating, Morningglory",[4]; [20],95
same,"Plant response rating, Morningglory",[4]; [21],0
same,"Plant response rating, Morningglory",[4]; [22],60
same,"Plant response rating, Morningglory",[4]; [23],75
same,Morningglory plant response rating,[4]; [24],90
same,"Plant response rating, Ryegrass, Italian",[5]; [17],0
same,"Ryegrass, Italian plant response rating (0 to 100 scale)",[5]; [18],15
same,"Plant response rating, Ryegrass, Italian",[5]; [19],40
same,"Plant response rating, Ryegrass, Italian",[5]; [20],60
same,"Plant response rating, Ryegrass, Italian",[5]; [21],0
same,"Plant response rating, Ryegrass, Italian",[5]; [22],0
same,"Plant response rating, Ryegrass, Italian",[5]; [23],0
same,"Ryegrass, Italian plant response rating",[5]; [24],0
same,"Plant response rating, Foxtail, Giant",[6]; [17],75
same,"Foxtail, Giant plant response rating (0 to 100 scale)",[6]; [18],80
same,"Plant response rating, Foxtail, Giant",[6]; [19],85
same,"Plant response rating, Foxtail, Giant",[6]; [20],95
same,"Plant response rating, Foxtail, Giant",[6]; [21],0
same,"Plant response rating, Foxtail, Giant",[6]; [22],25
same,"Plant response rating, Foxtail, Giant",[6]; [23],80
same,"Foxtail, Giant plant response rating",[6]; [24],80
same,"Plant response rating, Bromegrass, Downy",[7]; [17],5
same,"Bromegrass, Downy plant response rating (0 to 100 scale)",[7]; [18],20
same,"Plant response rating, Bromegrass, Downy",[7]; [19],35
same,"Plant response rating, Bromegrass, Downy",[7]; [20],50
same,"Plant response rating, Bromegrass, Downy",[7]; [21],0
same,"Plant response rating, Bromegrass, Downy",[7]; [22],0
same,"Plant response rating, Bromegrass, Downy",[7]; [23],0
same,"Bromegrass, Downy plant response rating",[7]; [24],0
same,"Plant response rating, Bermudagrass",[8]; [17],90
same,Bermudagrass plant response rating (0 to 100 scale),[8]; [18],98
same,"Plant response rating, Bermudagrass",[8]; [19],98
same,"Plant response rating, Bermudagrass",[8]; [20],98
same,"Plant response rating, Bermudagrass",[8]; [21],98
same,"Plant response rating, Bermudagrass",[8]; [22],100
same,"Plant response rating, Bermudagrass",[8]; [23],100
same,Bermudagrass plant response rating,"[8]; Preemergence, 250 g ai/ha, 0 to 100 scale, 0 no effect, 100 complete control",100
same,"Plant response rating, Corn",corn (Zea mays); [17],0
same,Corn plant response rating (0 to 100 scale),corn (Zea mays); [18],0
same,"Plant response rating, Corn",corn (Zea mays); [19],20
same,"Plant response rating, Corn",corn (Zea mays); [20],55
same,"Plant response rating, Corn",corn (Zea mays); [21],0
same,"Plant response rating, Corn",corn (Zea mays); [22],0
same,"Plant response rating, Corn",corn (Zea mays); [23],0
same,Corn plant response rating,corn (Zea mays); [24],0
same,"Plant response rating, Foxtail, Green",[9]; [17],65
same,"Foxtail, Green plant response rating (0 to 100 scale)",[9]; [18],85
same,"Plant response rating, Foxtail, Green",[9]; [19],90
same,"Plant response rating, Foxtail, Green",[9]; [20],90
same,"Plant response rating, Foxtail, Green",[9]; [21],5
same,"Plant response rating, Foxtail, Green",[9]; [22],50
same,"Plant response rating, Foxtail, Green",[9]; [23],50
same,"Foxtail, Green plant response rating",[9]; [24],98
same,"Plant response rating, Goosegrass",[10]; [17],75
same,Goosegrass plant response rating (0 to 100 scale),[10]; [18],80
same,"Plant response rating, Goosegrass",[10]; [19],95
same,"Plant response rating, Goosegrass",[10]; [20],98
same,"Plant response rating, Goosegrass",[10]; [21],95
same,"Plant response rating, Goosegrass",[10]; [22],100
same,"Plant response rating, Goosegrass",[10]; [23],100
same,Goosegrass plant response rating,[10]; [24],100
same,"Plant response rating, Blackgrass",[11]; [17],0
same,Blackgrass plant response rating (0 to 100 scale),[11]; [18],0
same,"Plant response rating, Blackgrass",[11]; [19],0
same,"Plant response rating, Blackgrass",[11]; [20],20
same,"Plant response rating, Blackgrass",[11]; [21],0
same,"Plant response rating, Blackgrass",[11]; [22],0
same,"Plant response rating, Blackgrass",[11]; [23],5
same,Blackgrass plant response rating,[11]; [24],10
same,"Plant response rating, Pigweed",[12]; [17],100
same,Pigweed plant response rating (0 to 100 scale),[12]; [18],100
same,"Plant response rating, Pigweed",[12]; [19],100
same,"Plant response rating, Pigweed",[12]; [20],100
same,"Plant response rating, Pigweed",[12]; [21],98
same,"Plant response rating, Pigweed",[12]; [22],100
same,"Plant response rating, Pigweed",[12]; [23],100
same,Pigweed plant response rating,[12]; [24],100
same,"Plant response rating, Ragweed",[13]; [17],80
same,Ragweed plant response rating (0 to 100 scale),[13]; [18],85
same,"Plant response rating, Ragweed",[13]; [19],90
same,"Plant response rating, Ragweed",[13]; [20],95
same,"Plant response rating, Ragweed",[13]; [21],75
same,"Plant response rating, Ragweed",[13]; [22],75
same,"Plant response rating, Ragweed",[13]; [23],95
same,Ragweed plant response rating,[13]; [24],95
same,"Plant response rating, Soybean",soybean (Glycine max); [17],80
same,Soybean plant response rating (0 to 100 scale),soybean (Glycine max); [18],95
same,"Plant response rating, Soybean",soybean (Glycine max); [19],98
same,"Plant response rating, Soybean",soybean (Glycine max); [20],98
same,"Plant response rating, Chickweed",[14]; [17],85
same,Chickweed plant response rating (0 to 100 scale),[14]; [18],90
same,"Plant response rating, Chickweed",[14]; [19],98
same,"Plant response rating, Chickweed",[14]; [20],100
same,"Plant response rating, Barley",[15]; [17],0
same,Barley plant response rating (0 to 100 scale),[15]; [18],0
same,"Plant response rating, Barley",[15]; [19],0
same,"Plant response rating, Barley",[15]; [20],0
same,"Plant response rating, Canarygrass",[16]; [17],0
same,Canarygrass plant response rating (0 to 100 scale),[16]; [18],0
same,"Plant response rating, Canarygrass",[16]; [19],0
same,"Plant response rating, Canarygrass",[16]; [20],0
